Key:
[1] = molecular target: Dopamine receptor; test: Displacement of 3[H]spiroperidol from Dopamine receptor in rat brain
[2] = Tested in vitro for its ability to displace 3[H] clozapine from non-muscarinic receptor in rat brain; format: tissue-based
[3] = molecular target: Muscarinic acetylcholine receptor; test: Tested in vitro for its ability to displace 3[H] clozapine from Muscarinic acetylcholine receptor in rat brain; format: tissue-based

IC50 [1]	IC50 [2]	IC50 [3]	SMILES
> 10000 nM	25 nM	–	CN1CCN(C2=Nc3ccccc3Nc3ccccc32)CC1
–	13 nM	–	CN1CCN(C2=Cc3cc(Cl)ccc3Cc3ccccc32)CC1
357 nM	9.4 nM	1970 nM	CN1CCN(C2=Cc3cc(Cl)ccc3Oc3ccccc32)CC1
–	17 nM	28 nM	CN1CCN(C2=Nc3ccccc3Nc3ccc(Cl)cc32)CC1 [ISOCLOZAPINE]
–	10 nM	–	CN1CCN(C2=Cc3ccccc3Cc3ccc(Cl)cc32)CC1
–	3.7 nM	–	CN1CCN(C2=Cc3ccccc3Cc3ccccc32)CC1
1500 nM	4 nM	2290 nM	CN1CCN(C2=Cc3ccccc3Oc3ccccc32)CC1

SMILES	IC50 [1]	IC50 [2]	IC50 [3]
CN1CCN(C2=Nc3cc(Cl)ccc3Nc3ccccc32)CC1 [CLOZAPINE]	–	13 nM	–
CN1CCN(C2=Cc3ccccc3Oc3ccc(Cl)cc32)CC1	27 nM	7.3 nM	2027 nM
